Consider 1 compound from patent US6632843B1, “Treatment of bruxism” (priority 2000, dated 2003).

For data set [1] the following is noted: after application. The text has this:
Cyclobenzaprine is a 5-HT2 receptor antagonist and its muscle relaxant effect is due to inhibition of serotonergic neurons.

The conditions of data set [2]: taken orally; cited from earlier work.

Structures are written as SMILES.

As to `CN(C)CCC=C1c2ccccc2C=Cc2ccccc21` [cyclobenzaprine, Cyclobenzaprine], the “time to clinical improvement” value in data set [1] is listed as “as early as the first 20 minutes”. In data set [2], the half life entry is “as long as one to three days” and the plasma protein binding entry is “highly bound to plasma proteins”.
